From patent US8618111B2, “5-alkynyl-pyrimidines” (Boehringer Ingelheim International GmbH, priority 2010, dated 2013)

Assays:
[1] = target: PI3Kalpha (Homo sapiens (Human), UniProt P42336); test: Inhibition of PI3Kalpha-induced PIP-2 phosphorylation (filter-binding assay); type: biochemical; conditions: 33P-ATP
Procedure: Inhibition of PI3Kalpha-Induced PIP-2 Phosphorylation
Method Type: Filter-Binding-Assay
Aliquoted in desired amounts and stored at −80° C. Final assay concentration 25 ng/well.

[2] = target: mTOR (Homo sapiens (Human), UniProt P42345); test: mTOR kinase activity assay (phosphorylation status of mTOR substrate 4E-BP1; TR-FRET); type: biochemical; conditions: GFP-4E-BP1 substrate, 8 μM ATP
Sequence of mTOR (P42345 1360-2549): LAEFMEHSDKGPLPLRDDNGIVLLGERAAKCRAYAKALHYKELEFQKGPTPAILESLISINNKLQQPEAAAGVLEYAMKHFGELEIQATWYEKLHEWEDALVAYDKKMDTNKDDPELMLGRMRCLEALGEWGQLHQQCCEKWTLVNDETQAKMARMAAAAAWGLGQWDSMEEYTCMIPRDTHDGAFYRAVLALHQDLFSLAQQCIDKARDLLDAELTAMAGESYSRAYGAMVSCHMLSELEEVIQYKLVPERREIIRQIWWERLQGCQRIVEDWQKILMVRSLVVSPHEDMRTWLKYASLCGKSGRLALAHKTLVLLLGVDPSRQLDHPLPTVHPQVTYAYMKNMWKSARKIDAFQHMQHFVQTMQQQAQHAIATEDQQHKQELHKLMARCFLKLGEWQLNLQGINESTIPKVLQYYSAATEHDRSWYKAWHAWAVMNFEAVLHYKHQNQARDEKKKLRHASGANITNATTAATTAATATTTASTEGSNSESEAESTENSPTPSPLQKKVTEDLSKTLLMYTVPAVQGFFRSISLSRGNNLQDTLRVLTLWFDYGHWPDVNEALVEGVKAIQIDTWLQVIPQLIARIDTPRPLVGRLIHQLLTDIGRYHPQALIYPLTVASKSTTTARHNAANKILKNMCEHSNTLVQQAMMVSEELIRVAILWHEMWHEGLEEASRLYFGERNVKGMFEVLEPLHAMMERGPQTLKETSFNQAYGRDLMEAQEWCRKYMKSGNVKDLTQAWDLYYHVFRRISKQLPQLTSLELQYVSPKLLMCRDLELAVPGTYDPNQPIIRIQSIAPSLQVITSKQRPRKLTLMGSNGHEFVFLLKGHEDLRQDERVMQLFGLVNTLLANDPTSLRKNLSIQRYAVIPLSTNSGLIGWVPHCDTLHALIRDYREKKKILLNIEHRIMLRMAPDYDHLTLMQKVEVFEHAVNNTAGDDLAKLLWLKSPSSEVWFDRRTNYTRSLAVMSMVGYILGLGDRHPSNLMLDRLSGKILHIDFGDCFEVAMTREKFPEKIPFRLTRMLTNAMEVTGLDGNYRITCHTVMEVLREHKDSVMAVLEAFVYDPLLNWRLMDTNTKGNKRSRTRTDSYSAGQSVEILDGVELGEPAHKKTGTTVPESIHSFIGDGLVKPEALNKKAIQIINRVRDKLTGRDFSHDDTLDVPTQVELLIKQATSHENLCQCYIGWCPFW
Procedure: mTOR Kinase Activity Assay
(Phosphorylation Status of mTOR Substrate 4E-BP1; TR-FRET)
The mTOR kinase TR-FRET assay utilizes a physiologically relevant protein substrate for mTOR (4E-BP1, labeled with an acceptor fluorophore (Green Fluorescent Protein) and paired with a corresponding Tb-labeled phospho-specific antibody.
The assay itself is divided into two phases: the reaction phase and the detection phase. In the reaction phase, all components required for the kinase reaction are added to the well, including the labeled protein substrate. The reaction is allowed to incubate for 60 minutes. After the reaction, EDTA is added to stop the kinase reaction, and terbium-labeled antibody is added to bind phosphorylated product. Because the terbium chelate is stable at the EDTA concentrations used to stop a kinase assay, the antibody and EDTA can be pre-mixed prior to addition to minimize pipetting steps. Binding of the terbium labeled antibody to the fluorophore-labeled phosphorylated product brings the terbium and GFP into proximity, resulting in an increase in TR-FRET. In the presence of an inhibitor, formation of phosphorylated product is reduced, and the TR-FRET value is decreased.
• GFP-4E-BP1 substrate; Invitrogen order no. PV4759 • Lanthascreen Tb-anti-p4E-BP1 (pThr46) Antibody Kit; Invitrogen order no. PV4758 • FRAP1 (mTOR) kinase; Invitrogen order no.
400 nM GFP-4E-BP1, 8 μM ATP, ˜150 ng/mL mTOR, 50 mM HEPES pH 7.5, 0.01% Polysorbate 20, 1 mM EGTA, 10 mM MnCl2, and variable amounts of test compounds.
Note: Thaw and keep mTOR, the substrate, ATP, and the antibody on ice prior to making working dilutions. Working dilutions of these components can be kept at room temperature for short periods of time the day of use. • 1. Add 2 ml of 5× Assay Buffer to 8 ml water to prepare 10 ml of 1× Assay Buffer, wherein the concentration of 1× Assay Buffer is 50 mM HEPES pH 7.5, 0.01% Polysorbate 20, 1 mM EGTA, and 10 mM MnCl2. • 2. Prepare Antibody/EDTA Solution by first adding 2.75 μl of Tb-anti p4E-BP1 Antibody to 2397 μl of LanthaScreen™ TR-FRET Dilution Buffer. Then, add 100 μl of 0.5 M EDTA. • 3. […] Then, add 1.6 μl of mTOR (0.45 mg/mL). • 4. Prepare ATP Solution by adding 3.2 μl of 10 mM ATP to 1997 μl of 1× Assay Buffer. Serial Dilution of Inhibitors (16 Point Curve)
Inhibitors are serially diluted in DMSO, then diluted to a 4× working concentration with 1× Assay Buffer. • 1. Dispense 40 μl of DMSO to two adjacent columns of a 96 well plate per compound (e.g. columns 1 and 2). • 2. Add 10 μl of inhibitor stock (10 mM) to the first well of the first column (A1) and mix. • 3. Remove 10 μl from A1 and transfer to the adjacent well in the next column (B1) and mix. • 4. Remove 10 μl from B1 and transfer to the next well in the first column (B2) and mix. • 5. […] Remove 4 μl of diluted compounds and add to 96 μl of 1× Assay Buffer in a 96-well plate making 4× compound dilutions. Kinase Reaction • 1. Add 2.5 μl of 4X compound dilutions to a 384-well plate. • 2. […] Preincubate for […] at RT (shaker). • 5. Add 5 μl of ATP Solution to all wells to start reactions. • 6. Shake the assay plate on a plate shaker for 30 seconds. • 7. Incubate the assay plate for one hour at room temperature (20-25° C.). Stop Step and Fluorescence Detection • 1. Add 10 μl of Antibody/EDTA Solution to each well in columns 1-9. • 2. Shake the assay plate on a plate shaker for 30 seconds. • 3. Incubate the assay plate for one hour at room temperature (20-25° C.). • 4. Measure the GFP (FRET) and terbium (reference) emission signals on a fluorescence plate reader (e.g. Perkin Elmer Envision). Data Analysis • 1. Calculate the emission ratio for each sample by dividing the GFP (FRET) signal by the terbium (reference) signal. • 2.

[3] = test system: PC3 (human prostate carcinoma cell line) cells; test: PC3 proliferation test; type: cell-based; conditions: PC-3, 72 h, 3 days incubation, DNA dye fluorescence
Procedure: The test is based on measurement of cellular DNA content via fluorescent dye binding. Because cellular DNA content is highly regulated, it is closely proportional to cell number. The extent of proliferation is determined by comparing cell counts for samples treated with drugs with untreated controls.
PC3 (human prostate carcinoma cell line) cells are sown in microtitre plates and incubated overnight in culture medium at 37° C. and 5% CO2. The test substances are diluted stepwise and added to the cells such that the total volume is 200 μL/well. Cells to which diluent, but not substance, is added serve as controls.

Sequence of PI3Kalpha (P42336 whole entry, species assumed): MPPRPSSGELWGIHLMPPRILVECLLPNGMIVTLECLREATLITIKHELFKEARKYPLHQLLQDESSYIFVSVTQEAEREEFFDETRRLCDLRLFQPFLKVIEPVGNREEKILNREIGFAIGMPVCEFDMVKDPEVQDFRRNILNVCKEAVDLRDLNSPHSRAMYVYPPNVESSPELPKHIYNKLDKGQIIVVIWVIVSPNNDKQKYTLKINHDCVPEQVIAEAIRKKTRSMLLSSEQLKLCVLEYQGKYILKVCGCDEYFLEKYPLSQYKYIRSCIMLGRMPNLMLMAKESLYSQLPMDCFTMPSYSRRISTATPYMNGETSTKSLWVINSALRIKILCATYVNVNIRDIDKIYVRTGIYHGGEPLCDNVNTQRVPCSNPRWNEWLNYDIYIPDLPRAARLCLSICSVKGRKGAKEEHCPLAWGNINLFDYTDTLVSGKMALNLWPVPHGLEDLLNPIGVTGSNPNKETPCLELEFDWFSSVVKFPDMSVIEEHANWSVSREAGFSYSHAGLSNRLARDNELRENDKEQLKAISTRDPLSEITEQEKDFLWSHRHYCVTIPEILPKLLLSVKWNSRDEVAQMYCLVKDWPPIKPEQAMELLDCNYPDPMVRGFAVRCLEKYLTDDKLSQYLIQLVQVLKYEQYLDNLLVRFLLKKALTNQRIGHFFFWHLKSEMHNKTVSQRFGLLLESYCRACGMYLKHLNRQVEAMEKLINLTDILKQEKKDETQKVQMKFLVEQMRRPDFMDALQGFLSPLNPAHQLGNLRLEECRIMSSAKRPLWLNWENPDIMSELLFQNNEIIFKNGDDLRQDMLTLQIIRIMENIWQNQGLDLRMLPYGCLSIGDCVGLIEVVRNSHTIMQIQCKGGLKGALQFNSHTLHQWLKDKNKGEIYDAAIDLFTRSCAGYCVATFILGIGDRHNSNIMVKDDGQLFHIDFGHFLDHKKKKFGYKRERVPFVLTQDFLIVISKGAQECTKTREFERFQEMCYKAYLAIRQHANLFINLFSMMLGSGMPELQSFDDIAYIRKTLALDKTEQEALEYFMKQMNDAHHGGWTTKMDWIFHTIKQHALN
Sequence of PI3Kalpha (P27986 whole entry partner, species assumed): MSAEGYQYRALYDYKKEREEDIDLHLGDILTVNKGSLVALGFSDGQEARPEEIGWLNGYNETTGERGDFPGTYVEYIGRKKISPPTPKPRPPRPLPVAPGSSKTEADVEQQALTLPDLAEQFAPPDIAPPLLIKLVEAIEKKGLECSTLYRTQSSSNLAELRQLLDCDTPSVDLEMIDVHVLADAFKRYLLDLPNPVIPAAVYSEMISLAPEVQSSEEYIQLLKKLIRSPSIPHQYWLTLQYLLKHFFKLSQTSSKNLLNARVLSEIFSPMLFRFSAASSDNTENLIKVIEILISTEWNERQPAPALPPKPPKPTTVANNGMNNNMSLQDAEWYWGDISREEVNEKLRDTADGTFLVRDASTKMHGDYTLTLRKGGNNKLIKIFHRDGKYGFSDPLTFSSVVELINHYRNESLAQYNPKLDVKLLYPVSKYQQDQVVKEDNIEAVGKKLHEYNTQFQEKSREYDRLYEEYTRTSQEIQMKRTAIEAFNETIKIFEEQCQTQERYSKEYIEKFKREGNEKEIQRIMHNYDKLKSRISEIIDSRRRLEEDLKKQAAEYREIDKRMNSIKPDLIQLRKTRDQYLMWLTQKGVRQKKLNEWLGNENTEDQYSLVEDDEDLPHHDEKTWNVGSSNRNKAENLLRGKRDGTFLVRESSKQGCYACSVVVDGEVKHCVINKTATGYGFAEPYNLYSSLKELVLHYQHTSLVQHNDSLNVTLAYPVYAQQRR

SMILES | IC50 PI3Ka [1] [nM] | IC50 [2] [nM] | EC50 [3] [nM]
CCc1ncnc(N2CCOC(C)(C)C2)c1C#Cc1ccc(N)nc1 [Example B-50] | 49 | 30 | 56
CCc1ncnc(N2CCC(CO)CC2)c1C#Cc1ccc(C)nc1 [Example B-72] | 134 | 70 | 474
CCc1ncnc(N2CCCC(NC(C)=O)C2)c1C#Cc1ccc(N)nc1 (centres unmarked) [Example B-20] | 167 | 16 | 158
CCc1ncnc(N2CCN(CCN3CCOCC3)CC2)c1C#Cc1ccc(N)nc1 [Example H-9] | 449 | 1570 | –
Cc1ncnc(N2CCNC(=O)CC2)c1C#Cc1ccc(N)nc1 [Example B-10] | 93 | 41 | 437
CCc1ncnc(N2CCC(NC(C)=O)CC2)c1C#Cc1ccc(N)nc1 [Example B-21] | 83 | 19 | 162
CCc1ncnc(N2CCC3(CC2)OCCO3)c1C#Cc1ccc(N)nc1 [Example B-22] | 57 | 4 | 32
Cc1ncnc(N2CCN(C)CC2)c1C#Cc1ccc(N)nc1 [Example B-8] | 547 | 56 | 277
CCOC1CCN(c2ncnc(CC)c2C#Cc2ccc(N)nc2)CC1 [Example B-46] | – | – | 72
CCNC(=O)CC1CCN(c2ncnc(C)c2C#Cc2ccc(N)nc2)CC1 [Example E-5] | 38 | 58 | 171
CCc1ncnc(N2CCC(O)(C3CCCCC3)CC2)c1C#Cc1ccc(N)nc1 [Example B-12] | 189 | 16 | 94
Cc1ncnc(N2CCC(CNC(=O)CC(C)C)CC2)c1C#Cc1ccc(N)nc1 [Example F-7] | 47 | 237 | –
CCCCCC(=O)NCC1CCN(c2ncnc(C)c2C#Cc2ccc(N)nc2)CC1 [Example F-2] | 23 | 31 | 344
CCc1ncnc(N2CC[S+]([O-])CC2)c1C#Cc1ccc(N)nc1 [Example B-52] | 104 | 28 | 180
CCc1ncnc(N2CCC(C)(O)CC2)c1C#Cc1ccc(C)nc1 [Example B-73] | 84 | 30 | 160
Cc1ccc(C(=O)N2CCN(c3ncnc(C)c3C#Cc3ccc(N)nc3)CC2)o1 [Example G-10] | 25 | 60 | 221
Cc1ncnc(N2CCOC(C)(C)C2)c1C#Cc1ccc(N)nc1 [Example B-1] | 46 | 105 | 112
CCc1ncnc(N2CCS(=O)(=O)CC2)c1C#Cc1ccc(N)nc1 [Example B-53] | 380 | 12 | 142
Cc1ncnc(N2CCN(C(=O)C3CCC3)CC2)c1C#Cc1ccc(N)nc1 [Example G-8] | 22 | 64 | 206
CCc1ncnc(N2CCC(C=C(C)C)CC2)c1C#Cc1ccc(N)nc1 [Example B-15] | 622 | 64 | 202
CCc1ncnc(N2CCNC(=O)C2)c1C#Cc1ccc(N)nc1 [Example H-4] | 58 | 45 | –
Cc1ncnc(N2CCC(O)(C(C)C)CC2)c1C#Cc1ccc(N)nc1 [Example B-66] | 51 | 5 | 24
Cc1ncnc(N2CCC3(CCN(C)C3=O)CC2)c1C#Cc1ccc(N)nc1 [Example B-75] | 48 | 10 | 92

SMILES | IC50 PI3Ka [1] [nM] | IC50 [2] [nM] | EC50 [3] [nM]
Cc1ncnc(N2CCC(CC(C)(C)O)CC2)c1C#Cc1ccc(N)nc1 [Example B-13] | 29 | 18 | 51
Cc1ncnc(N2C[C@@H](C)O[C@@H](C)C2)c1C#Cc1ccc(N)nc1 [Example B-9] | 34 | 11 | 184
CCc1ncnc(N2CCC(CO)CC2)c1C#Cc1ccc(N)nc1 [Example B-45] | 58 | 10 | 46
Cc1ncnc(N2CCC(=O)CC2)c1C#Cc1ccc(N)nc1 [Example B-65] | – | – | 218
CCc1ncnc(N2CCN(CCCS(C)(=O)=O)CC2)c1C#Cc1ccc(N)nc1 [Example H-15] | 108 | 25 | –
CCc1ncnc(N2CCC3(CCCCC3)CC2)c1C#Cc1ccc(N)nc1 [Example H-3] | 369 | 333 | –
CCc1ncnc(N2CCN(Cc3nc(C)c(C)o3)CC2)c1C#Cc1ccc(N)nc1 [Example H-28] | 232 | 258 | –
Cc1ncnc(N2CCC(CC(=O)NCCN(C)C)CC2)c1C#Cc1ccc(N)nc1 [Example E-8] | 149 | 261 | –
CCc1ncnc(N2CCc3c(ncnc3N3CCOCC3)C2)c1C#Cc1ccc(N)nc1 [Example H-27] | 103 | 139 | –
Cc1ncnc(N2CCC(CNC(=O)CN(C)C)CC2)c1C#Cc1ccc(N)nc1 [Example F-4] | 301 | 457 | –
Cc1ncnc(N2CCC(C)(O)CC2)c1C#Cc1ccc(N)nc1 [Example B-23] | – | 7 | 19
CCc1ncnc(N2CCn3c(COC)nnc3C2)c1C#Cc1ccc(N)nc1 [Example H-8] | 185 | 127 | –
CCc1ncnc(N2CCC(O)(CC)CC2)c1C#Cc1ccc(N)nc1 [Example B-36] | – | 5 | 20
CCc1ncnc(N2CCN(c3ccccc3C(F)(F)F)CC2)c1C#Cc1ccc(N)nc1 [Example H-19] | 1861 | 2000 | –
Cc1ncnc(N2CCC(CC(=O)N(C)CCN(C)C)CC2)c1C#Cc1ccc(N)nc1 [Example E-3] | 2001 | 457 | –
CCc1ncnc(N2CCc3cc(OC)c(OC)cc3C2)c1C#Cc1ccc(N)nc1 [Example H-18] | 43 | 83 | –
CCc1ncnc(N2CCc3ccccc3C2)c1C#Cc1ccc(N)nc1 [Example H-17] | 56 | 68 | –
CCc1ncnc(N2CCNC(=O)C2)c1C#Cc1ccc(N)nc1 [Example H-5] | 745 | 91 | –
CCc1ncnc(N2CCN(C3CCOCC3)CC2)c1C#Cc1ccc(N)nc1 [Example H-12] | 141 | 77 | –
CCc1ncnc(N2CCN(C3COC3)CC2)c1C#Cc1ccc(N)nc1 [Example H-26] | 105 | 47 | –
CCc1ncnc(N2CCN(C(=O)N3CCOCC3)CC2)c1C#Cc1ccc(N)nc1 [Example H-16] | 116 | 22 | –
Cc1ncnc(N2CCC(CC(=O)N3CCN(C)CC3)CC2)c1C#Cc1ccc(N)nc1 [Example E-2] | 96 | 366 | –
